US9763445B2, “Safened herbicidal compositions comprising a pyridine carboxylic acid herbicide” (Dow AgroSciences, LLC, priority 2014, dated 2017)

What was measured:
corn/maize (ZEAMX) = experiment: Postemergence greenhouse trial, % visual injury on corn/maize; type: in vivo, Zea mays; settings: for % visual injury, observed (Ob): ZEAMX
Outline: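 Injury was scored visually (0 = none, 100 = complete kill) 20–22 d after track-sprayer application at 187 L/ha, compared with solvent-sprayed controls. Test plants at the 2–3 true leaf stage; herbicide (g ae/ha) plus cloquintocet-mexyl safener (g ai/ha) in crop-oil-containing spray; expected mixture response by Colby.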

common sorghum (SORVU) = experiment: Postemergence greenhouse trial, % visual injury on common sorghum; type: in vivo, Sorghum vulgare; settings: for % visual injury, observed (Ob): SORVU
Outline: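 Greenhouse crops at second to third true leaf stage sprayed postemergence at 187 L/ha with herbicide (g ae/ha) plus safener (g ai/ha) in acetone/DMSO diluted into 1.5% v/v Agri-dex. Injury scored visually versus solvent-blank controls after 20-22 d, 0 (none) to 100% (complete kill); expected mixture effects by Colby's equation.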

wild chamomile (MATCH) = experiment: Postemergence greenhouse trial, % visual injury on wild chamomile; type: in vivo, Matricaria chamomilla
Description: (§1) Seeds of the desired test plant species were planted in Sun Gro MetroMix® 306 planting mixture, which typically has a pH of 6.0 to 6.8 and an organic matter content of about 30 percent, in plastic pots with a surface area of 103.2 square centimeters (cm^2). When required to ensure good germination and healthy plants, a fungicide treatment and/or other chemical or physical treatment was applied. The plants were grown for 7-36 days (d) in a greenhouse with an approximate 14-hour (h) photoperiod which was maintained at about 23° C. during the day and 22° C. during the night. Nutrients and water were added on a regular basis and supplemental lighting was provided with overhead metal halide 1000-Watt lamps as necessary. The plants were employed for testing when they reached the second or third true leaf stage.
(§2) Weighed amounts of technical material were dissolved in a volume of 97:3 volume per volume (v/v) acetone/dimethyl sulfoxide (DMSO) to stock solutions. […] The concentrated stock solutions were diluted with an aqueous mixture of 1.5% v/v of Agri-dex crop oil concentrate to provide the appropriate application rates. Compound requirements are based upon a 12 milliliter (mL) application volume at a rate of 187 liters per hectare (L/ha). Stocks solutions of the safeners were prepared following the same procedure. Spray solutions of the safeners and experimental compound mixtures were prepared by adding the stock solutions to the appropriate amount of dilution solution to form a 12 mL spray solution in two-way combinations. Formulated compounds were applied to the plant material with an overhead Mandel track sprayer equipped with 8002E nozzles calibrated to deliver 187 L/ha over an application area of 0.503 square meters (m^2) at a spray height of 18 inches (43 centimeters (cm)) above average plant canopy. Control plants were sprayed in the same manner with the solvent blank. All herbicide application (component a) rates are in g ae/ha and all safener (component b) rates are in g ai/ha.
(§3) The treated plants and control plants were placed in a greenhouse as described above and watered by sub-irrigation to prevent wash-off of the test compounds. After 20-22 d, the condition of the test plants as compared with that of the control plants was determined visually and scored on a scale of 0 to 100 percent where 0 corresponds to no injury and 100 corresponds to complete kill. Colby's equation was used to determine the herbicidal effects expected from the mixtures. […]

winter wheat (TRZAW) = experiment: Postemergence greenhouse trial, % visual injury on winter wheat; type: in vivo, Triticum aestivum
Description: as §1, §2
(§4) The treated plants and control plants were placed in a greenhouse as described above and watered by sub-irrigation to prevent wash-off of the test compounds. After 20-22 d, the condition of the test plants as compared with that of the control plants was determined visually and scored on a scale of 0 to 100 percent where 0 corresponds to no injury and 100 corresponds to complete kill. The condition of the test plants was compared with that of the control plants as determined visually and scored on a scale of 0 to 100 percent, where 0 corresponds to no injury and 100 corresponds to complete kill. Colby's equation was used to determine the herbicidal effects expected from the mixtures.
(§5) The safener cloquintocet-mexyl was combined with compound 1, compound 2, compound 3, compound 7, compound 8, compound 9, compound 10, compound 11, compound 12, compound 13, compound 14, compound 15, compound 16, compound 17, compound 18, compound 19, and compound 20, and applied to spring wheat (TRZAS), winter wheat (TRZAW), and spring barley (HORVS) and the phytotoxicity of the herbicidal compositions was measured. […]

chickweed (STEME) = experiment: Postemergence greenhouse trial, % visual injury on chickweed; type: in vivo, Stellaria media; settings: alone, 35 g/ha
Outline: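 Visual injury, 0 (none) to 100 (complete kill), rated 20-22 d after overhead track-sprayer application at 187 L/ha; Colby's equation gave expected mixture responses. Herbicide (g ae/ha) and cloquintocet-mexyl safener (g ai/ha) diluted in aqueous 1.5% v/v Agri-dex, applied to weeds at 2–3 true leaves.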

shepherd's purse (CAPBP) = experiment: Postemergence greenhouse trial, % visual injury on shepherd's purse; type: in vivo, Capsella bursa-pastoris; settings: alone
Description: as §1, §2, §4, §5

prickly lettuce (LACSE) = experiment: Postemergence greenhouse trial, % visual injury on prickly lettuce; type: in vivo, Lactuca serriola
Description: as §1, §2, §3

CCCCCC(C)OC(=O)COc1ccc(Cl)c2cccnc12 (centres unmarked) [CQC-m, cloquintocet-mexyl, reference compound]
0%: % visual injury, observed (Ob) (corn/maize (ZEAMX); safener alone 2.5 g/ha) | % visual injury, observed (Ob) (corn/maize (ZEAMX); safener alone 5 g/ha) | % visual injury, observed (Ob) (corn/maize (ZEAMX); safener alone 10 g/ha) | % visual injury, observed (Ob) (corn/maize (ZEAMX); safener alone 20 g/ha) | % visual injury, Ob (corn/maize (ZEAMX); alone, 35 g/ha) | % visual injury, observed (Ob) (common sorghum (SORVU); safener alone 2.5 g/ha) | % visual injury, observed (Ob) (common sorghum (SORVU); safener alone 5 g/ha) | % visual injury, observed (Ob) (common sorghum (SORVU); safener alone 10 g/ha) | % visual injury, observed (Ob) (common sorghum (SORVU); safener alone 20 g/ha) | % visual injury, Ob (common sorghum (SORVU); alone, 35 g/ha) | % visual injury, Ob (wild chamomile (MATCH); compound 0, CQC-m 4.375 g/ha) | % visual injury, Ob (wild chamomile (MATCH); compound 0, CQC-m 8.75 g/ha) | % visual injury, Ob (wild chamomile (MATCH); compound 0, CQC-m 17.5 g/ha) | % visual injury, Ob (wild chamomile (MATCH); compound 0, CQC-m 35 g/ha) | % visual injury, Ob (wild chamomile (MATCH); compound 0, CQC-m 70 g/ha) | % visual injury, Ob (winter wheat (TRZAW); TRZAW, compound 0 g/ha, CQC-m 35 g/ha) | % visual injury, Ob (winter wheat (TRZAW); TRZAW, compound 0 g/ha, CQC-m 70 g/ha) | % visual injury, observed (Ob) (winter wheat (TRZAW); TRZAW, safener alone 2.5 g/ha) | % visual injury, observed (Ob) (winter wheat (TRZAW); TRZAW, safener alone 5 g/ha) | % visual injury, observed (Ob) (winter wheat (TRZAW); TRZAW, safener alone 10 g/ha) | % visual injury, observed (Ob) (winter wheat (TRZAW); TRZAW, safener alone 20 g/ha) | % visual injury, Ob (winter wheat (TRZAW); alone, 35 g/ha) | % visual injury, Ob (winter wheat (TRZAW); alone, 70 g/ha) | % visual injury, Ob (chickweed (STEME)) | % visual injury, Ob (shepherd's purse (CAPBP); 4.375 g/ha) | % visual injury, Ob (shepherd's purse (CAPBP); 8.75 g/ha) | % visual injury, Ob (shepherd's purse (CAPBP); 17.5 g/ha) | % visual injury, Ob (shepherd's purse (CAPBP); 35 g/ha) | % visual injury, Ob (shepherd's purse (CAPBP); 70 g/ha) | % visual injury, Ob (prickly lettuce (LACSE); LACSE, compound 0, CQC-m 4.375 g/ha) | % visual injury, Ob (prickly lettuce (LACSE); LACSE, compound 0, CQC-m 8.75 g/ha) | % visual injury, Ob (prickly lettuce (LACSE); LACSE, compound 0, CQC-m 17.5 g/ha) | % visual injury, Ob (prickly lettuce (LACSE); LACSE, compound 0, CQC-m 35 g/ha) | % visual injury, Ob (prickly lettuce (LACSE); LACSE, compound 0, CQC-m 70 g/ha) | % visual injury, Ob (prickly lettuce (LACSE); LACSE, compound 0 g/ha, CQC-m 4.375 g/ha) | % visual injury, Ob (prickly lettuce (LACSE); LACSE, compound 0 g/ha, CQC-m 8.75 g/ha) | % visual injury, Ob (prickly lettuce (LACSE); LACSE, compound 0 g/ha, CQC-m 17.5 g/ha) | % visual injury, Ob (prickly lettuce (LACSE); LACSE, compound 0 g/ha, CQC-m 35 g/ha) | % visual injury, Ob (prickly lettuce (LACSE); LACSE, compound 0 g/ha, CQC-m 70 g/ha) | % visual injury, Ob (prickly lettuce (LACSE); alone, 4.375 g/ha) | % visual injury, Ob (prickly lettuce (LACSE); alone, 8.75 g/ha) | % visual injury, Ob (prickly lettuce (LACSE); alone, 17.5 g/ha) | % visual injury, Ob (prickly lettuce (LACSE); alone, 35 g/ha) | % visual injury, Ob (prickly lettuce (LACSE); alone, 70 g/ha)
